From PubChem BioAssay AID2060884 (Molecular Pharmacology Branch, DTP, NCI, 2025)
pIC50: −log10 of the molar value.

System: NCI-H929 complex spheroids, viability % test/control
Assay: Anticancer human tumor NCI-H929 cell line growth inhibition [RAS];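 further: compound exposure lasted seven days before viability was read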;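 on viability, T/C: 100% = DMSO vehicle control viability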
Settings: for pIC50: curve of first compound; for viability, T/C: stronger effect = lower value; active means viability on the fitted dose curve at most 10% of control; inactive means the rest
How it was run: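 Tumour cells grown as complex spheroids with HUVEC endothelial cells and mesenchymal stem cells, treated with RAS pathway inhibitor combinations. Each agent spans half-log steps from near clinical Cmax, or 10 microM where Cmax is unknown.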

CC1(C)CCC(Nc2ncc(C(F)(F)F)c(-c3c[nH]c4c(P(C)(C)=O)c(C#N)ccc34)n2)CN1 (stereo unspecified) + CCn1c(-c2cccnc2C(C)OC)c2c3cc(ccc31)N1CCOC(CC(NC(=O)C(C(C)C)N(C)C(=O)C3(F)CCN(C(=O)C#CC(C)(C)N(C)C)CC3)C(=O)N3CCCC(N3)C(=O)OCC(C)(C)C2)C1
active: viability, T/C (second compound 0.000949 µM, first compound 0.00949 µM) 4.36% | viability, T/C (second compound 0.000949 µM, first compound 0.03 µM) 3.1% | viability, T/C (second compound 0.000949 µM, first compound 0.0949 µM) 2.69% | viability, T/C (second compound 0.000949 µM, first compound 0.3 µM) 2.22% | viability, T/C (second compound 0.003 µM, first compound 0.00949 µM) 4.24% | viability, T/C (second compound 0.003 µM, first compound 0.03 µM) 3.6% | viability, T/C (second compound 0.003 µM, first compound 0.0949 µM) 2.6% | viability, T/C (second compound 0.003 µM, first compound 0.3 µM) 2.53% | viability, T/C (second compound 0.00949 µM, first compound 0.00949 µM) 4.24% | viability, T/C (second compound 0.00949 µM, first compound 0.03 µM) 2.85% | viability, T/C (second compound 0.00949 µM, first compound 0.0949 µM) 2.94% | viability, T/C (second compound 0.00949 µM, first compound 0.3 µM) 2.08% | viability, T/C (second compound 0.03 µM, first compound 0.00949 µM) 3.38% | viability, T/C (second compound 0.03 µM, first compound 0.03 µM) 2.65% | viability, T/C (second compound 0.03 µM, first compound 0.0949 µM) 2.58% | viability, T/C (second compound 0.03 µM, first compound 0.3 µM) 1.92% | viability, T/C (second compound 0.0949 µM, first compound 0.003 µM) 9.6% | viability, T/C (second compound 0.0949 µM, first compound 0.00949 µM) 2.64% | viability, T/C (second compound 0.0949 µM, first compound 0.03 µM) 2.41% | viability, T/C (second compound 0.0949 µM, first compound 0.0949 µM) 2.02% | viability, T/C (second compound 0.0949 µM, first compound 0.3 µM) 1.77% | viability, T/C (second compound 0.3 µM, first compound 0.003 µM) 5.86% | viability, T/C (second compound 0.3 µM, first compound 0.00949 µM) 2.85% | viability, T/C (second compound 0.3 µM, first compound 0.03 µM) 2.43% | viability, T/C (second compound 0.3 µM, first compound 0.0949 µM) 1.88% | viability, T/C (second compound 0.3 µM, first compound 0.3 µM) 1.61%
8.74: pIC50 (second compound 0.003 µM) | pIC50 (second compound 0.00949 µM)
8.84: pIC50 (second compound 0.3 µM)
8.75: pIC50 (second compound 0.03 µM)
8.71: pIC50 (second compound 0.000949 µM)
8.78: pIC50 (second compound 0.0949 µM)
inactive: viability, T/C (second compound 0.000949 µM, first compound 0.000949 µM) 101% | viability, T/C (second compound 0.000949 µM, first compound 0.003 µM) 20.1% | viability, T/C (second compound 0.003 µM, first compound 0.000949 µM) 94.2% | viability, T/C (second compound 0.003 µM, first compound 0.003 µM) 17.3% | viability, T/C (second compound 0.00949 µM, first compound 0.000949 µM) 93.6% | viability, T/C (second compound 0.00949 µM, first compound 0.003 µM) 17% | viability, T/C (second compound 0.03 µM, first compound 0.000949 µM) 96.1% | viability, T/C (second compound 0.03 µM, first compound 0.003 µM) 12.4% | viability, T/C (second compound 0.0949 µM, first compound 0.000949 µM) 88.9% | viability, T/C (second compound 0.3 µM, first compound 0.000949 µM) 76.2%

C=CC(=O)N1CCN(c2nc(OCC3CCCN3C)nc3c(F)c(-c4nc(N)cc(C)c4C(F)(F)F)c(Cl)cc23)C(C)C1 (stereo unspecified) + C#Cc1c(F)ccc2cc(O)cc(-c3ncc4c(N5CC6CCC(C5)N6)nc(OCC56CCCN5CC(F)C6)nc4c3F)c12
< 6.00: pIC50 (second compound 0.0316 µM) | pIC50 (second compound 0.1 µM) | pIC50 (second compound 0.316 µM) | pIC50 (second compound 1 µM) | pIC50 (second compound 3.16 µM) | pIC50 (second compound 10 µM)
inactive: viability, T/C (second compound 0.0316 µM, first compound 0.00316 µM) 102% | viability, T/C (second compound 0.0316 µM, first compound 0.01 µM) 97.5% | viability, T/C (second compound 0.0316 µM, first compound 0.0316 µM) 99.1% | viability, T/C (second compound 0.0316 µM, first compound 0.1 µM) 97.3% | viability, T/C (second compound 0.0316 µM, first compound 0.316 µM) 108% | viability, T/C (second compound 0.0316 µM, first compound 1 µM) 103% | viability, T/C (second compound 0.1 µM, first compound 0.00316 µM) 98.8% | viability, T/C (second compound 0.1 µM, first compound 0.01 µM) 101% | viability, T/C (second compound 0.1 µM, first compound 0.0316 µM) 102% | viability, T/C (second compound 0.1 µM, first compound 0.1 µM) 106% | viability, T/C (second compound 0.1 µM, first compound 0.316 µM) 107% | viability, T/C (second compound 0.1 µM, first compound 1 µM) 112% | viability, T/C (second compound 0.316 µM, first compound 0.00316 µM) 96.1% | viability, T/C (second compound 0.316 µM, first compound 0.01 µM) 104% | viability, T/C (second compound 0.316 µM, first compound 0.0316 µM) 101% | viability, T/C (second compound 0.316 µM, first compound 0.1 µM) 104% | viability, T/C (second compound 0.316 µM, first compound 0.316 µM) 106% | viability, T/C (second compound 0.316 µM, first compound 1 µM) 110% | viability, T/C (second compound 1 µM, first compound 0.00316 µM) 95.8% | viability, T/C (second compound 1 µM, first compound 0.01 µM) 104% | viability, T/C (second compound 1 µM, first compound 0.0316 µM) 107% | viability, T/C (second compound 1 µM, first compound 0.1 µM) 105% | viability, T/C (second compound 1 µM, first compound 0.316 µM) 101% | viability, T/C (second compound 1 µM, first compound 1 µM) 112% | viability, T/C (second compound 3.16 µM, first compound 0.00316 µM) 103% | viability, T/C (second compound 3.16 µM, first compound 0.01 µM) 99.8% | viability, T/C (second compound 3.16 µM, first compound 0.0316 µM) 103% | viability, T/C (second compound 3.16 µM, first compound 0.1 µM) 104% | viability, T/C (second compound 3.16 µM, first compound 0.316 µM) 106% | viability, T/C (second compound 3.16 µM, first compound 1 µM) 115% | viability, T/C (second compound 10 µM, first compound 0.00316 µM) 104% | viability, T/C (second compound 10 µM, first compound 0.01 µM) 101% | viability, T/C (second compound 10 µM, first compound 0.0316 µM) 100% | viability, T/C (second compound 10 µM, first compound 0.1 µM) 105% | viability, T/C (second compound 10 µM, first compound 0.316 µM) 99.6% | viability, T/C (second compound 10 µM, first compound 1 µM) 104%

C=CC(=O)Nc1cc(Nc2nccc(-c3cn(C)c4ccccc34)n2)c(OC)cc1N(C)CCN(C)C + CCn1c(-c2cc(N3CCN(C)CC3)cnc2C(C)OC)c2c3cc(ccc31)-c1csc(n1)CC(NC(=O)C1CC1C)C(=O)N1CCCC(N1)C(=O)OCC(C)(C)C2
inactive: viability, T/C (second compound 0.000949 µM, first compound 0.00316 µM) 97.3% | viability, T/C (second compound 0.000949 µM, first compound 0.01 µM) 95% | viability, T/C (second compound 0.000949 µM, first compound 0.0316 µM) 103% | viability, T/C (second compound 0.000949 µM, first compound 0.1 µM) 94.9% | viability, T/C (second compound 0.000949 µM, first compound 0.316 µM) 105% | viability, T/C (second compound 0.000949 µM, first compound 1 µM) 103% | viability, T/C (second compound 0.003 µM, first compound 0.00316 µM) 87.2% | viability, T/C (second compound 0.003 µM, first compound 0.01 µM) 95.3% | viability, T/C (second compound 0.003 µM, first compound 0.0316 µM) 98.8% | viability, T/C (second compound 0.003 µM, first compound 0.1 µM) 98.4% | viability, T/C (second compound 0.003 µM, first compound 0.316 µM) 103% | viability, T/C (second compound 0.003 µM, first compound 1 µM) 106% | viability, T/C (second compound 0.00949 µM, first compound 0.00316 µM) 108% | viability, T/C (second compound 0.00949 µM, first compound 0.01 µM) 112% | viability, T/C (second compound 0.00949 µM, first compound 0.0316 µM) 112% | viability, T/C (second compound 0.00949 µM, first compound 0.1 µM) 114% | viability, T/C (second compound 0.00949 µM, first compound 0.316 µM) 111% | viability, T/C (second compound 0.00949 µM, first compound 1 µM) 112% | viability, T/C (second compound 0.03 µM, first compound 0.00316 µM) 54.3% | viability, T/C (second compound 0.03 µM, first compound 0.01 µM) 46.8% | viability, T/C (second compound 0.03 µM, first compound 0.0316 µM) 59.9% | viability, T/C (second compound 0.03 µM, first compound 0.1 µM) 49.9% | viability, T/C (second compound 0.03 µM, first compound 0.316 µM) 42.2% | viability, T/C (second compound 0.03 µM, first compound 1 µM) 9.94%
active: viability, T/C (second compound 0.0949 µM, first compound 0.00316 µM) 7.68% | viability, T/C (second compound 0.0949 µM, first compound 0.01 µM) 6.73% | viability, T/C (second compound 0.0949 µM, first compound 0.0316 µM) 7.23% | viability, T/C (second compound 0.0949 µM, first compound 0.1 µM) 6.05% | viability, T/C (second compound 0.0949 µM, first compound 0.316 µM) 5.18% | viability, T/C (second compound 0.0949 µM, first compound 1 µM) 1.96% | viability, T/C (second compound 0.3 µM, first compound 0.00316 µM) 4.84% | viability, T/C (second compound 0.3 µM, first compound 0.01 µM) 4.08% | viability, T/C (second compound 0.3 µM, first compound 0.0316 µM) 4.06% | viability, T/C (second compound 0.3 µM, first compound 0.1 µM) 3.89% | viability, T/C (second compound 0.3 µM, first compound 0.316 µM) 3.59% | viability, T/C (second compound 0.3 µM, first compound 1 µM) 1.46%
6.92: pIC50 (second compound 0.03 µM)
> 8.50: pIC50 (second compound 0.0949 µM) | pIC50 (second compound 0.3 µM)
< 6.00: pIC50 (second compound 0.000949 µM) | pIC50 (second compound 0.003 µM) | pIC50 (second compound 0.00949 µM)
